In patent US8084494B2, “Substituted aminophenylsulfonamide compounds as HIV protease inhibitor” (priority 2005, dated 2011):
pEC50: −log10 of the molar value.

Tests used:
Experiment in all cases: microbe, parasite or virus in culture
Assay type in all cases: cell-based
[1] = test system: clinically isolated HIV strain A-2-001; settings: Human immunodeficiency virus 1, 72 h, read-out: EC50, Virus Strains A-2-001
Description: (§1) The compounds were tested in a cellular assay using the MT4-LTR-EGFP cells for anti-viral activity. […] Because of the increasing emergence of drug resistant HIV strains, the present compounds were tested for their potency against clinically isolated HIV strains harboring several mutations. […] The viral strains A, B, C and D contain mutations as indicated below in Table 2.
(§2) The cellular assay was performed according to the following procedure. HIV- or mock-infected MT4-LTR-EGFP cells were incubated for three days in the presence of various concentrations of the compounds according to the invention. Upon infection, the viral tat protein activates the GFP reporter. At the end of the incubation period, the GFP signal was measured. […] The inhibitory activity of the compound was monitored on the virus-infected cells and was expressed as EC50. These values represent the amount of the compound required to protect 50% of the cells from virus infection.

[2] = test system: clinically isolated HIV strain B-2-001; settings: Human immunodeficiency virus 1, 72 h, read-out: EC50, Virus Strains B-2-001
Description: as §1, §2

[3] = test system: clinically isolated HIV strain C-2-001; settings: Human immunodeficiency virus 1, 72 h, read-out: EC50, Virus Strains C-2-001
Description: as §1, §2

[4] = test system: clinically isolated HIV strain D-2-001; settings: Human immunodeficiency virus 1, 72 h, read-out: EC50, Virus Strains D-2-001
Description: as §1, §2

[5] = test system: wild type laboratory HIV strain (WT IIIB-2-001); settings: Human immunodeficiency virus 1, IIIB, 72 h, read-out: EC50, Virus Strains WT IIIB-2-001
Description: as §1, §2

Row | Structure (SMILES) | pEC50 [1] | pEC50 [2] | pEC50 [3] | pEC50 [4] | pEC50 [5]
1 | CC(C)CN(CC(O)C(Cc1ccccc1)NC(=O)OC1COC2OCCC12)S(=O)(=O)c1ccc(N)c(NCc2ccc(F)cc2F)c1 (stereo not shown) [Compound 78, (3-{[4-amino-3-(2,4-difluoro-benzylamino)-benzenesulfonyl]-isobutyl-amino}-1-benzyl-2-hydroxy-propyl)-carbamic acid hexahydro-furo[2,3-b]furan-3-yl ester] | 9.21 | 6.87 | 8.00 | 7.45 | 8.44
2 | CC(C)CN(C[C@@H](O)[C@H](Cc1ccccc1)NC(=O)O[C@H]1CO[C@H]2OCC[C@H]21)S(=O)(=O)c1ccc(N)c(NCc2ccccn2)c1 [Compound 80, [3-({4-amino-3-[(pyridin-2-ylmethyl)-amino]-benzenesulfonyl}-isobutyl-amino)-1-benzyl-2-hydroxy-propyl]-carbamic acid hexahydro-furo[2,3-b]furan-3-yl ester] | 8.83 | 7.03 | 7.84 | 7.41 | 8.05
